In patent EP3124027A1, “TRIPHENYLPHOSPHONIUM SALTS FOR USE IN CANCER THREAPY” (Centrum Badan Molekularnych I Makromolekularnych Polskiej …, priority 2015, dated 2017):
Where two headings read alike, the source gives them in different places.

How the values were obtained:
K562 and HeLa cells = details: PL395749, cited from earlier work
[1] = system: cervical carcinoma cells (HeLa); details: after 24 h, PL395749; cited from earlier work
K562 cells = details: K562, 24 h; PL395749; cited from earlier work
[2] = system: cervical carcinoma HeLa cells and chronic myelogenous leukemia K562 cells; test: MTT cytotoxicity, summary ranges over HeLa and K562 cells; assay type: cell-based; details: Homo sapiens, read-out: IG50 (the source's name)
Description: Compound 1, where R = ethyl, X = I (formula 1a) and the compound 1 where R = n-octyl, and X = I (formula 1b, were tested for cytotoxic properties on two representatives of human tumor cells: adherent HeLa cells (cervical carcinoma) and suspension K562 cells (chronic myelogenous leukemia). The cytotoxicity of the test compounds was determined with the MTT test in which the yellow tetrazolium salt is reduced by dehydrogenase in the mitochondria of living cells into a purple formazan. 1.HeLa or K562 cells were seeded in 96-well plates in the amount of seven thousand cells/well in 200 µL of culture medium. Cells were incubated overnight in an incubator (37 °C, 5% CO2) 2. The tested compound was added to the cells to yield the following final concentrations in the cell culture: 1 mM, 10 µM, 100 nM, 1 nM. Cells treated with 1% DMSO served as the control with 100% viability. 3. […] MTT, a yellow tetrazolium salt is reduced to purple formazan by mitochondrial dehydrogenases of living cells, the quantity of which can be determined spectrophotometrically. Cells were incubated with MTT for two hours in an incubator (37 ° C, 5% CO2). Next, lysis buffer containing SDS and DMF was added (95 µL / well). Cells were lysed overnight at 37 ° C, 5% CO2. 4. The absorbance of each well was read on FLUOstar Omega reader at the wave length of 570 and 650 nm. The absorbance measured at 570 nm is proportional to the number of viable cells. The viability of the cells was calculated for each concentration of the test compound. The IC50 values were read from the dose - viability plots by interpolation to 50% cell survival. 5.The results indicating the strong toxicity of both, compound 1a and compound 1b to the adherent HeLa cells and suspension K562 cells are shown in Tables 1 and 2.

[3] = system: HeLa cells (cervical carcinoma); test: MTT cytotoxicity test on adherent HeLa cells; assay type: cell-based, human; details: for cytotoxicity, times greater in relation to the salt Fh3P^+C5H11 I^-: HeLa cells after 48 h; for IC50: Homo sapiens, HeLa
Description: (§1) Compound 1, where R = ethyl, X = I (formula 1a) and the compound 1 where R = n-octyl, and X = I (formula 1b, were tested for cytotoxic properties on two representatives of human tumor cells: adherent HeLa cells (cervical carcinoma) and suspension K562 cells (chronic myelogenous leukemia). The cytotoxicity of the test compounds was determined with the MTT test in which the yellow tetrazolium salt is reduced by dehydrogenase in the mitochondria of living cells into a purple formazan. 1.HeLa or K562 cells were seeded in 96-well plates in the amount of seven thousand cells/well in 200 µL of culture medium. Cells were incubated overnight in an incubator (37 °C, 5% CO2) 2. The tested compound was added to the cells to yield the following final concentrations in the cell culture: 1 mM, 10 µM, 100 nM, 1 nM. Cells treated with 1% DMSO served as the control with 100% viability. 3. After 24 h or 48 h incubation of HeLa or K562 cells with test compounds, 25 µL of MTT (5 mg / mL) was added to each well. MTT, a yellow tetrazolium salt is reduced to purple formazan by mitochondrial dehydrogenases of living cells, the quantity of which can be determined spectrophotometrically. Cells were incubated with MTT for two hours in an incubator (37 ° C, 5% CO2). Next, lysis buffer containing SDS and DMF was added (95 µL / well). Cells were lysed overnight at 37 ° C, 5% CO2. 4. The absorbance of each well was read on FLUOstar Omega reader at the wave length of 570 and 650 nm. The absorbance measured at 570 nm is proportional to the number of viable cells. The viability of the cells was calculated for each concentration of the test compound. The IC50 values were read from the dose - viability plots by interpolation to 50% cell survival. 5.The results indicating the strong toxicity of both, compound 1a and compound 1b to the adherent HeLa cells and suspension K562 cells are shown in Tables 1 and 2.
(§2) The compound of formula 1c was tested for cytotoxic properties on two human cell lines using the MTT assay (yellow tetrazolium salt transformed by dehydrogenase in the mitochondria of living cells into the purple formazan). The tests were performed on HeLa (cervical carcinoma) and K562 (chronic myelogenous leukemia) cells.
(§3) (Experimental protocol as in Example I).

[4] = system: K562 cells (chronic myelogenous leukemia); test: MTT cytotoxicity test on suspension K562 cells; assay type: cell-based, human; details: for fold decrease of IC50 after 48 h compared to IC50 after 24h: K562 cells; for cytotoxicity, times greater in relation to the salt Fh3P^+C5H11 I^-: K562 cells after 48 h
Description: as §1, §2, §3

HeLa cells = details: read-out: cytotoxicity EC50; cited from earlier work
[5] = Homo sapiens, K562, 24 h, read-out: IC50
[6] = Homo sapiens, K562, 48 h, read-out: IC50

CCCCC[P+](c1ccccc1)(c1ccccc1)c1ccccc1 [Compound C5]
IC50 (K562 and HeLa cells; after 24 h): 50 to 90 µM
IC50 (K562 and HeLa cells; second value for C5, printed after 24 h): 6 to 60 µM
IC50 [1]: 90 µM
IC50 (K562 cells): 50 µM

CCCCCCCCCC[P+](c1ccccc1)(c1ccccc1)c1ccccc1.[I-] [Compound 1a, n-decyltriphenylphosphonium iodide]
IC50 ([2]; after 4 h (so in the source)): 2 to 7 µM
IC50 ([2]; after 48 hrs): 0.5 to 5 µM
cytotoxicity, times greater in relation to the salt Fh3P^+C5H11 I^- [3]: 12-15 times
IC50 ([3]; 24h, read-out: IC50): 7 µM
IC50 ([3]; 48h, read-out: IC50): 5 µM
IC50 [4, 5]: 3 µM
IC50 [4, 6]: 0.5 µM
fold decrease of IC50 after 48 h compared to IC50 after 24h [4]: six
cytotoxicity, times greater in relation to the salt Fh3P^+C5H11 I^- [4]: 12 times

CCCCCCCCCCCCCCCC[P+](c1ccccc1)(c1ccccc1)c1ccccc1.[I-] [Compound 1b, triphenyl-n-hexadecylphosphonium iodide]
IC50 ([2]; after 4 h (so in the source)): 2 to 7 µM
IC50 ([2]; after 48 hrs): 0.5 to 5 µM
cytotoxicity, times greater in relation to the salt Fh3P^+C5H11 I^- [3]: 12-15 times
IC50 ([3]; 24h, read-out: IC50): 5 µM
IC50 ([3]; 48h, read-out: IC50): 4 µM
IC50 [4, 5]: 2 µM
IC50 [4, 6]: 0.5 µM
fold decrease of IC50 after 48 h compared to IC50 after 24h [4]: four
cytotoxicity, times greater in relation to the salt Fh3P^+C5H11 I^- [4]: 12 times

CCCCCCCCCCCCCC[P+](CCCCCC)(CCCCCC)CCCCCC.O=S(=O)([N-]S(=O)(=O)C(F)(F)F)C(F)(F)F [tri-n-hexyl(tetradecyl)phosphonium bis(trifluoromethylsulfonyl) imide]
EC50 (HeLa cells): 80 µM

BrCc1ccc(-c2ccc(C[P+](c3ccccc3)(c3ccccc3)c3ccccc3)cc2)cc1 [Compound 1c]
IC50 ([3]; 48 h (Table 2, compound 1c), read-out: IC50 48 h): 30 µM
IC50 ([4]; Homo sapiens, K562, 48 h, K562, 48 h (Table 2, compound 1c), read-out: IC50 48 h): 6 µM
IC50 ([4]; K562, 48 h (Table 2, compound 1c), read-out: IC50 48 h): 5 µM
